According to patent US20250243196A1, “CITRON KINASE INHIBITORS” (The Cleveland Clinic Foundation, priority 2021, published 2025):

Columns and labels:
Assay in all cases: KinaseProfiler panel
Format in all cases: biochemical
Conditions in all cases: activity remaining
ALK6(h) = ALK6(h) (Homo sapiens (Human), UniProt O00238); set-up: dose or concentration left out as unconfirmed
BRK(h) = BRK(h) (Homo sapiens (Human), UniProt Q13882); set-up: dose or concentration left out as unconfirmed
DYRK1A(h) = DYRK1A(h) (Homo sapiens (Human), UniProt Q13627); set-up: dose or concentration left out as unconfirmed
EphB1(h) = EphB1(h) (Homo sapiens (Human), UniProt P54762); set-up: dose or concentration left out as unconfirmed
GRK1(h) = GRK1(h) (Homo sapiens (Human), UniProt Q15835); set-up: dose or concentration left out as unconfirmed
GSK3β(h) = GSK3β(h) (Homo sapiens (Human), UniProt P49841); set-up: dose or concentration left out as unconfirmed
ICK(h) = ICK(h) (Homo sapiens (Human), UniProt Q9UPZ9)
IRAK1(h) = IRAK1(h) (Homo sapiens (Human), UniProt P51617); set-up: dose or concentration left out as unconfirmed
MAP4K3(h) = MAP4K3(h) (Homo sapiens (Human), UniProt Q8IVH8); set-up: dose or concentration left out as unconfirmed
MAPKAP-K3(h) = MAPKAP-K3(h) (Homo sapiens (Human), UniProt Q16644); set-up: dose or concentration left out as unconfirmed
MKK3(h) = MKK3(h) (Homo sapiens (Human), UniProt P46734); set-up: dose or concentration left out as unconfirmed
MRCKγ(h) = MRCKγ(h) (Homo sapiens (Human), UniProt Q6DT37); set-up: dose or concentration left out as unconfirmed
MYO3B(h) = MYO3B(h) (Homo sapiens (Human), UniProt Q8WXR4); set-up: dose or concentration left out as unconfirmed
NEK11(h) = NEK11(h) (Homo sapiens (Human), UniProt Q8NG66); set-up: dose or concentration left out as unconfirmed
PAK6(h) = PAK6(h) (Homo sapiens (Human), UniProt Q9NQU5); set-up: dose or concentration left out as unconfirmed
PDGFRα(h) = PDGFRα(h) (Homo sapiens (Human), UniProt P16234); set-up: dose or concentration left out as unconfirmed
PKG1β(h) = PKG1β(h) (Homo sapiens (Human), UniProt Q13976); set-up: dose or concentration left out as unconfirmed
Ret(h) = Ret(h) (Homo sapiens (Human), UniProt P07949); set-up: dose or concentration left out as unconfirmed
ROCK-I(h) = ROCK-I(h) (Homo sapiens (Human), UniProt Q13464); set-up: dose or concentration left out as unconfirmed
SAPK2b(h) = SAPK2b(h) (Homo sapiens (Human), UniProt Q15759); set-up: dose or concentration left out as unconfirmed
SRMS(h) = SRMS(h) (Homo sapiens (Human), UniProt Q9H3Y6); set-up: dose or concentration left out as unconfirmed
STK25(h) = STK25(h) (Homo sapiens (Human), UniProt O00506); set-up: dose or concentration left out as unconfirmed
STK32A(h) = STK32A(h) (Homo sapiens (Human), UniProt Q8WU08); set-up: dose or concentration left out as unconfirmed
STK32C(h) = STK32C(h) (Homo sapiens (Human), UniProt Q86UX6)
TAF1L(h) = TAF1L(h) (Homo sapiens (Human), UniProt Q8IZX4); set-up: dose or concentration left out as unconfirmed
TAO1(h) = TAO1(h) (Homo sapiens (Human), UniProt Q7L7X3); set-up: dose or concentration left out as unconfirmed
ULK1(h) = ULK1(h) (Homo sapiens (Human), UniProt O75385); set-up: dose or concentration left out as unconfirmed
ULK1(h), sequence (O75385 whole entry): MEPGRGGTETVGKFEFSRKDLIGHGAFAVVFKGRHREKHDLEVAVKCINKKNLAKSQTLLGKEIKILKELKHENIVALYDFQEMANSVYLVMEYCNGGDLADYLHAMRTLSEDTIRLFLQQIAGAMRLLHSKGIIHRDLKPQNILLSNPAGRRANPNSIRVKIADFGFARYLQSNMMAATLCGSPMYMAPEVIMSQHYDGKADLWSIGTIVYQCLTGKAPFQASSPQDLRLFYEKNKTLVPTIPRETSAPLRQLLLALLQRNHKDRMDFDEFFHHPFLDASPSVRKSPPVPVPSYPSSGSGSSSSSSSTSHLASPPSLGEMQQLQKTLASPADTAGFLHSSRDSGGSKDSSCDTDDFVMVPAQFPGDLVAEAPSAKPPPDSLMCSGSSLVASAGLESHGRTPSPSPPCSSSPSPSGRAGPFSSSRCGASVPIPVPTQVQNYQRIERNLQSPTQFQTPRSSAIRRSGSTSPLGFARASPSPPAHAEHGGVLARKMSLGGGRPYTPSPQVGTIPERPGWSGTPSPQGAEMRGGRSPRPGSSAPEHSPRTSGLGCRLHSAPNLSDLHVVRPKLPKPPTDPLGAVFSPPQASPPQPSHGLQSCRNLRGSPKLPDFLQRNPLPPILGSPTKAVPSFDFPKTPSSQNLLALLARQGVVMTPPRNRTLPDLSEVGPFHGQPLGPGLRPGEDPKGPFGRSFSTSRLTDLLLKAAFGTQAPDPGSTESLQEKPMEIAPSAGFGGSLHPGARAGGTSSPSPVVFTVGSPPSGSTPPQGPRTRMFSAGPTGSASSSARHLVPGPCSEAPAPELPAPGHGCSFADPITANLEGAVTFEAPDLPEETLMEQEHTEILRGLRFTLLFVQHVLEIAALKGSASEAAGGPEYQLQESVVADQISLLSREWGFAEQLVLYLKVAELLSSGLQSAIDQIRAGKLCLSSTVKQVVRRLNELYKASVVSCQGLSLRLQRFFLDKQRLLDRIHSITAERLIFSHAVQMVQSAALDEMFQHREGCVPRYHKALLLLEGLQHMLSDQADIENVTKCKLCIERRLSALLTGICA

TAF1L(h), sequence (Q8IZX4 whole entry): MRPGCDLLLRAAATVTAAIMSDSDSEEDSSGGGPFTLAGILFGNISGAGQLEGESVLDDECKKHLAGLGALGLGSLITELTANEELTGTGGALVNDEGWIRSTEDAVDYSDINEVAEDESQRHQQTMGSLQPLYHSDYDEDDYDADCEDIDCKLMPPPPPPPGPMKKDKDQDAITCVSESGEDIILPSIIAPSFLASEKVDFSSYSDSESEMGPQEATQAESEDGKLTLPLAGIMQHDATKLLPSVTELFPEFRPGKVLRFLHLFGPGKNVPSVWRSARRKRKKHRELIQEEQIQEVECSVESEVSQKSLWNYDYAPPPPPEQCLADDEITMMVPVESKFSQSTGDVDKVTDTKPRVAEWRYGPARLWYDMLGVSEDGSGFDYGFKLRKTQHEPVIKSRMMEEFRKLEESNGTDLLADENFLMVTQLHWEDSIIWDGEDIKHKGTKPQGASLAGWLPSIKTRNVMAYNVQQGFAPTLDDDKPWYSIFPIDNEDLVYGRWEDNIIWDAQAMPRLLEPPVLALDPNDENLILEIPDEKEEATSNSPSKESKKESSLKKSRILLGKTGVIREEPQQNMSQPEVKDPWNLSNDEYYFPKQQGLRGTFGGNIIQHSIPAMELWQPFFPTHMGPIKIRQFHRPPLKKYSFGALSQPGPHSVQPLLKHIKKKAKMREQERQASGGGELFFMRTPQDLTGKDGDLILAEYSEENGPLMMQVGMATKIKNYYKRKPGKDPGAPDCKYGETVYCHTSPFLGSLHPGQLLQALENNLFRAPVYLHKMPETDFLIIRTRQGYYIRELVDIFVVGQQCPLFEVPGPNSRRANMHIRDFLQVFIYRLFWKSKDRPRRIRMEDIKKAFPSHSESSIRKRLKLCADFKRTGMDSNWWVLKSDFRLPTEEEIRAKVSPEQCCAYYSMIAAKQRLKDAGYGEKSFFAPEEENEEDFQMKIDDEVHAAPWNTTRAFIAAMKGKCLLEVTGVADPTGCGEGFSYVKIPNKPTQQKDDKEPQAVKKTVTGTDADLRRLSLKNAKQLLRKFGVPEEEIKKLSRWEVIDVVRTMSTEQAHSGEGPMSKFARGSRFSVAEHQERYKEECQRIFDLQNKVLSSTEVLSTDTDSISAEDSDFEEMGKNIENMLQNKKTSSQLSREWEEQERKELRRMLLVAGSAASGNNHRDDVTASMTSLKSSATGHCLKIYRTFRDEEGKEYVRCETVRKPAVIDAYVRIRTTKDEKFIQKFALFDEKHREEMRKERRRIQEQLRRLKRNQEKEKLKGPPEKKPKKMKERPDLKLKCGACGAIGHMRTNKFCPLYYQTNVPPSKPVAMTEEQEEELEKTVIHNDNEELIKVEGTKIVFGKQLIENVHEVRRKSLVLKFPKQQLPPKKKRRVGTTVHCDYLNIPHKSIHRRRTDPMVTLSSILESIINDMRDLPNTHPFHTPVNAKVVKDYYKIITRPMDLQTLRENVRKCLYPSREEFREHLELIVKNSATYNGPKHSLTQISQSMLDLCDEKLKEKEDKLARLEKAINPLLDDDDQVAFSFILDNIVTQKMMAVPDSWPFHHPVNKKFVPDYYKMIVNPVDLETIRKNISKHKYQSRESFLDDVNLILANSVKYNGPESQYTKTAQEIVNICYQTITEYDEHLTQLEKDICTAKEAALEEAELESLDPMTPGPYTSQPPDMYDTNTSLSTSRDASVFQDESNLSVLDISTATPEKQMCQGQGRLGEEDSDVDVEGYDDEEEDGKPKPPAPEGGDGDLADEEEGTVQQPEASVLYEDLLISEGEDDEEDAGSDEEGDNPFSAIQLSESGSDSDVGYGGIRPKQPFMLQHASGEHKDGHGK
MAP4K3(h), sequence (Q8IVH8 whole entry): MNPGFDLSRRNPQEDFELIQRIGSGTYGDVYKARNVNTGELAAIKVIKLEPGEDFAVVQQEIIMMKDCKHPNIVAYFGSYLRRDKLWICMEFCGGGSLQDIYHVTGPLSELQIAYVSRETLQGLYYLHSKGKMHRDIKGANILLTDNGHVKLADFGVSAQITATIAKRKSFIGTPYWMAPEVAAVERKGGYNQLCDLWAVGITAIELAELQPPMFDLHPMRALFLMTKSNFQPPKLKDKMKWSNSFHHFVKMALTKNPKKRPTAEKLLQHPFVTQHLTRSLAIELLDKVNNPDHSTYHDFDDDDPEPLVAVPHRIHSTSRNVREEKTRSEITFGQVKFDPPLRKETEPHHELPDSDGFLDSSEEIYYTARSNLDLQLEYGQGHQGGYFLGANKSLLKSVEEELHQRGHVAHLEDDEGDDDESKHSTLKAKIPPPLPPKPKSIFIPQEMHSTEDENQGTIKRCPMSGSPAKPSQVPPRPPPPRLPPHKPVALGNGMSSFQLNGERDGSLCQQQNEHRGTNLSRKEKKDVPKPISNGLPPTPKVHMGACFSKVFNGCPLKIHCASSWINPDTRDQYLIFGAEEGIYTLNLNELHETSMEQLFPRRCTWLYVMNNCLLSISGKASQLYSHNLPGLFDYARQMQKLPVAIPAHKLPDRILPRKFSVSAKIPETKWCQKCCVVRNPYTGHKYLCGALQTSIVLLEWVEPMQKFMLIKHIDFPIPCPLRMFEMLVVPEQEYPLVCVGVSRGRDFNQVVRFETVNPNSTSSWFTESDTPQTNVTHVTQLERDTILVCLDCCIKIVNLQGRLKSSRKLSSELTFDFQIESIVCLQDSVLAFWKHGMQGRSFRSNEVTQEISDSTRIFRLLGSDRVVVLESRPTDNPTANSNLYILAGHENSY
MKK3(h), sequence (P46734 whole entry): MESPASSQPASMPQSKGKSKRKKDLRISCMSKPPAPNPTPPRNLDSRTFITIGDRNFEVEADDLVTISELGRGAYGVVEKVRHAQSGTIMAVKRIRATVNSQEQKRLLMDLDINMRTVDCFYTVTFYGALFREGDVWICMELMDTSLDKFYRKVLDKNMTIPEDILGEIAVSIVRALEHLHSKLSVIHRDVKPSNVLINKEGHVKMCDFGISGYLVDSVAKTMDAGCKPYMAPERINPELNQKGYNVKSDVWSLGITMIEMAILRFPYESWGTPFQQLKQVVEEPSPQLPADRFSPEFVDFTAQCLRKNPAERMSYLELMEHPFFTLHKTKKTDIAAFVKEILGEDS
NEK11(h), sequence (Q8NG66 whole entry): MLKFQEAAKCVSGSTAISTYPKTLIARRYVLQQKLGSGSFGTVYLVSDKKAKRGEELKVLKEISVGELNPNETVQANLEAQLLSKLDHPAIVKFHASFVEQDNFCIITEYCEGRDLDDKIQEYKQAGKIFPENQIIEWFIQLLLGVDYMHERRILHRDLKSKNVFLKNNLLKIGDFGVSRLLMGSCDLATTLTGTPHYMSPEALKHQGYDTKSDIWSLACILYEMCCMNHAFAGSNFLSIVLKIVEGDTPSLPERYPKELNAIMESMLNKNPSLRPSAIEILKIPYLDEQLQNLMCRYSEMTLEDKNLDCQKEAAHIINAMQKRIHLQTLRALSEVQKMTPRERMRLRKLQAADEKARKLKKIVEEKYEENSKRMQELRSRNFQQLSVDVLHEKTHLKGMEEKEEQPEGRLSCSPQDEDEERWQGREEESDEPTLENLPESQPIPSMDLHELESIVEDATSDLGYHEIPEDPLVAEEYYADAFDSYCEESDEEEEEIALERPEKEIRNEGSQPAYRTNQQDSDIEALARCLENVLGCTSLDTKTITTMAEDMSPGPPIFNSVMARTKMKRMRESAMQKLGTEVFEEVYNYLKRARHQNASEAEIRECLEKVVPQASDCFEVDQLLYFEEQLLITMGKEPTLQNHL

Cc1cc2c(-c3ccc(NC(=O)[C@H](N)CC(C)(C)C)cc3C)ccnc2[nH]1 [Compound F-90, (2R)-2-Amino-4,4-dimethyl-N-[3-methyl-4-(2-methyl-1H-pyrrolo[2,3-b]pyridin-4-yl)phenyl]pentanamide]
% Activity (ALK6(h)): 74% | % Activity (BRK(h)): 83% | % Activity (DYRK1A(h)): 112% | % Activity (EphB1(h)): 83% | % Activity (GRK1(h)): 86% | % Activity (GSK3β(h)): 93% | % Activity (ICK(h)): 99% | % Activity (IRAK1(h)): 95% | % Activity (MAP4K3(h)): 109% | % Activity (MAPKAP-K3(h)): 125% | % Activity (MKK3(h)): 97% | % Activity (MRCKγ(h)): 98% | % Activity (MYO3B(h)): 79% | % Activity (NEK11(h)): 97% | % Activity (PAK6(h)): 101% | % Activity (PDGFRα(h)): 116% | % Activity (PKG1β(h)): 92% | % Activity (Ret(h)): 97% | % Activity (ROCK-I(h)): 96% | % Activity (SAPK2b(h)): 90% | % Activity (SRMS(h)): 86% | % Activity (STK25(h)): 92% | % Activity (STK32A(h)): 90% | % Activity (STK32C(h)): 85% | % Activity (TAF1L(h)): 101% | % Activity (TAO1(h)): 83% | % Activity (ULK1(h)): 95%
